EC50 and IC50 data for two compounds are collected here from ChEMBL document CHEMBL1201862, “PubChem BioAssay data set” (2004).

Assay [1] has as its target T1, Serine/threonine-protein phosphatase (Candida dubliniensis (strain CD36 / CBS 7987 / NCPF 3949 / NRRLY-17841) (Yeast), UniProt B9W6M3).
T1 sequence (B9W6M3 whole entry): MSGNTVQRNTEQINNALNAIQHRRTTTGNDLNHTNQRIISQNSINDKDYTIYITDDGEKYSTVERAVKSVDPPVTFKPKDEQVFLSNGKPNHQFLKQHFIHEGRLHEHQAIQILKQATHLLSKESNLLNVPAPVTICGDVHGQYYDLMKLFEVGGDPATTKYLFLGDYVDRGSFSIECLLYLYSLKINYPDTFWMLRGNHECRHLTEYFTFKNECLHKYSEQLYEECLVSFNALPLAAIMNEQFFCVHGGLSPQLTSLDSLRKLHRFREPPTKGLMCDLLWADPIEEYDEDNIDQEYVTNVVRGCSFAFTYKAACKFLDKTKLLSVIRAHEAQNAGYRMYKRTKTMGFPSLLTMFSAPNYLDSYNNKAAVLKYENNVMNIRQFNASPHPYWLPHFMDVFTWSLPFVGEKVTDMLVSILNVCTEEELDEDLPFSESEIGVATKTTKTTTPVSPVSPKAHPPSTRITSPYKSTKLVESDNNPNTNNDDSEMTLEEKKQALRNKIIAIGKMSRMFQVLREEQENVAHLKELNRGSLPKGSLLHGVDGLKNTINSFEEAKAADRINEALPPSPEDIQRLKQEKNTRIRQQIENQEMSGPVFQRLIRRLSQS
Description: blockers of CaCl2-induced CDRE-lacZ signaling – S. cerevisiae, luminescence, secondary, dose response (AID 2388).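 Note: yeast reporter cells carrying a calcineurin-responsive lacZ construct stimulated with calcium chloride; luminescent beta-galactosidase reporter signal in whole cells rather than isolated phosphatase activity; potency for inhibition where a drop in reporter signal means calcineurin blockade.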 Format: functional, cell-based.

Assay [2] is described as follows: viability of HCT116 lacking mutant beta-catenin – cell-based, human colon tumor, dose response (AID 1045).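 Note: HCT116 colon tumor cells with beta catenin knocked out; cells exposed to compound for 60 hours.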 Format: functional.
Assay [3] addresses T2, Sentrin-specific protease 7 (Homo sapiens, UniProt Q9BQF6).
T2 sequence (Q9BQF6 whole entry): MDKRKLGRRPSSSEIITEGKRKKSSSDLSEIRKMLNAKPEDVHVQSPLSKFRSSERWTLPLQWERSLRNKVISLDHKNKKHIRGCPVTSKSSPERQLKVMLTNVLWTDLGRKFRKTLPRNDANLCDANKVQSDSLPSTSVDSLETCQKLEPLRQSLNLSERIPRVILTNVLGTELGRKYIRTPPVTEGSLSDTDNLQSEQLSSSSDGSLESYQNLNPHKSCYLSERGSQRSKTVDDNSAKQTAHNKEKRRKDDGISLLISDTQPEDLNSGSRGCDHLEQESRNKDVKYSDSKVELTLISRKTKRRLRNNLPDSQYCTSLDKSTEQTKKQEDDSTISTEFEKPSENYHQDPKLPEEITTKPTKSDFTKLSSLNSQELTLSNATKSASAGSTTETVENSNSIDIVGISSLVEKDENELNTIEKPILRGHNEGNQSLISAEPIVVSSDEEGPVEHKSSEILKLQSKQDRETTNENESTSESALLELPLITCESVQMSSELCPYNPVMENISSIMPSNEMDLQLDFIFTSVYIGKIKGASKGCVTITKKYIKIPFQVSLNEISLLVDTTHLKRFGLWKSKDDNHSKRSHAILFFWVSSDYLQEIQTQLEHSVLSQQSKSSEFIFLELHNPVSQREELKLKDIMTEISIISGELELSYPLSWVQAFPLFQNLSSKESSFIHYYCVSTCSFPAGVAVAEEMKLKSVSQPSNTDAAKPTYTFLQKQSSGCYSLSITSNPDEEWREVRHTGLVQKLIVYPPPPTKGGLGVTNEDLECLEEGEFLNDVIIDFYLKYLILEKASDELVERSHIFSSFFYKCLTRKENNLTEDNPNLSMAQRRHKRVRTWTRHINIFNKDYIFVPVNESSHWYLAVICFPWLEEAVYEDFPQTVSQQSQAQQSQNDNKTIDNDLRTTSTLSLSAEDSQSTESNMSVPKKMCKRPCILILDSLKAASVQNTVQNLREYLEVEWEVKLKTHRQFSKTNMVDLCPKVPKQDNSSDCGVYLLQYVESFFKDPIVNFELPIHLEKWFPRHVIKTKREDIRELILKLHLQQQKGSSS
It is filed as functional.

Assay [4] has as its target T3, Sentrin-specific protease 8 (Homo sapiens, UniProt Q96LD8).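 Note: luminescence read-out of SENP8 inhibition, dose-response confirmation following an ultra-high-throughput screen.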
T3 sequence (Q96LD8 whole entry): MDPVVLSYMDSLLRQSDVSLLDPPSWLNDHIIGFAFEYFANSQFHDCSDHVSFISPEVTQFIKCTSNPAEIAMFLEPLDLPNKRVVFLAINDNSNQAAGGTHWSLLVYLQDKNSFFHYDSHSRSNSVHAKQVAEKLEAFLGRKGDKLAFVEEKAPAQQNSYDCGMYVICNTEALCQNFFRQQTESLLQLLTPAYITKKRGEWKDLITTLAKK
Format: functional.

For assay [5], the target named is Serine/threonine-protein phosphatase PP1-alpha catalytic subunit (Homo sapiens, UniProt P62136). Nature of the assay: inhibition of protein phosphatase 1 activity – biochemical, fluorescence, dose response (AID 2394).
Sequence of Serine/threonine-protein phosphatase PP1-alpha catalytic subunit (P62136 whole entry): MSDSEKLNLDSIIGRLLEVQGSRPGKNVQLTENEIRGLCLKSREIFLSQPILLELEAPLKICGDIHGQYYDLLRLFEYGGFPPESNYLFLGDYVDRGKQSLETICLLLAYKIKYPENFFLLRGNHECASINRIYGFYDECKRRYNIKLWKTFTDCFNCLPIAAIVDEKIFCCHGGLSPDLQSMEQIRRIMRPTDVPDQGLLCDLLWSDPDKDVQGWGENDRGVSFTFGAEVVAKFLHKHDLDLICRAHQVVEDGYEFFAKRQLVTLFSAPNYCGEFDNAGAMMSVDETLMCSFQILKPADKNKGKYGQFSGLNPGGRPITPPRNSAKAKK
Assay [6] deals with Streptococcus sp. 'group A'. Nature of the assay: Streptococcus pyogenes SK(-)GAS viability under kanamycin – luminescence, BacTiterGlo, confirmation, counter-screen for streptokinase expression inhibitor project, dose response (AID 1900). It is filed as functional, organism-based. For orientation: A counterscreen serves to expose hits that act by an unwanted route or on another target.

The test system of a further assay is Streptococcus. Description: GAS UMAA2166 growth inhibition – luminescence, BacTiterGlo, counter-screen for streptokinase expression inhibitor project, dose response (AID 1915).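 Note: potency for reduction of bacterial viability or growth.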 Format: functional, organism-based.

Calls of active or inactive are those of the source.

With `Cc1ccc(NC2=CC(=O)C(=O)c3ccccc32)cc1`, the EC50 in assay [1] was > 180 µM (inactive); in assay [2] it was 4.52 µM (active). Also, the IC50 is 36.7 µM (active) in assay [3] and 21.6 µM (active) in assay [4].

For the compound `O=C(O)c1ccc(S(=O)(=O)/N=C2\C=C(Nc3ccccc3F)C(=O)c3ccccc32)cc1`, the IC50 in assay [5] is on record as 15.5 µM (not active). Besides, the EC50 in assay [6] is 5.74 µM (active); in the assay with Streptococcus, 4.05 µM (active).

What is called EC50 is the concentration needed to bring the measured effect to its halfway point. For orientation: IC50 means the concentration at which inhibition is half-maximal.
